# Assay results reported in patent US8560243B2, “Methods for determining therapeutic index from gene expression profiles” (Microsoft Corporation, priority 1998, dated 2013).
# Assays:
# yeast gene YOL031C = experiment: Yeast gene expression response to methotrexate exposure, Hill function fit; format: cell-based, S. cerevisiae; settings: least squares fit
# Description: FIG. 4 illustrates the fit of a Hill function to the response of gene YOL031C illustrated in FIG. 3.
# [formula] The adjustable parameters are selected independently for each cellular constituent of the drug response and for each cellular constituent of the pathway response. Preferably, the adjustable parameters are selected so that for each cellular constituent of each pathway response the sum of the squares of the distances of H(pi,l) from Ri,l(Pi,l) is minimized, and so that for each cellular constituent of the drug response the sum of the squares of the distances of H(tl) from Dk(tl) is minimized. This preferable parameter adjustment method is known in the art as a least squares fit of H( ) to Ri,k( ) or to Dk( ). Other possible model functions are based on polynomial fitting, for example by various known classes of polynomials.
# Model fitting with a Hill function is illustrated with respect to FIGS. 3 and 4. As discussed, FIG. 3 illustrates an example of a pathway perturbed by methotrexate and identified by measurement. This figure illustrates the mRNA expression levels of 30 genes of the yeast S. cerevisiae that, of the approximately 6000 genes in the genome of this yeast, had the largest expression changes in response to six different exposure levels of methotrexate. FIG. 4 illustrates a fit of the pathway response of one of these gene expression levels by a Hill function. In particular, the yeast gene YOL031C was fit by a Hill function with parameters n=2, a=−0.61, and log10 (u0)=1.26 selected by the previously described least squares method.
# yeast = experiment: Growth of yeast under methotrexate titration; format: cell-based, S. cerevisiae; settings: 100 μM titration
# off-target genes = experiment: Transcriptional response to FK506 titration in yeast strain with CNA1 and CNA2 deleted; format: cell-based, S. cerevisiae
# Description: The response of those genes to FK506 were considered as off-target activity. Each ORF (Open Reading Frame) may be corresponding to an off-target gene.
# Description for calcineurin pathway: In this example, the expression of a number of genes are monitored as a wild type yeast culture is subjected to a graded levels of the drug FK506 (FIG. 8A). Similar experiments are repeated with a yeast culture whose CNA1 and CNA2 genes are deleted (FIG. 8B). CNA1 and CNA2 are two components of the calcineurin multi-protein complex. Because the drug FK506 acts upon the calcineurin protein to exert its activity on the calcineurin pathway. Deletion of CNA1 and CNA2 eliminates the primary target pathway for FK506. […]
# Control cultures were treated with the same volume of just ethanol. Growth was monitored by OD600 and cells were harvested at OD600=1.4+/−0.1 by centrifugation for 2 min at ambient temperature in a Sorvall RC5C+ centrifuge in a SLA-1500 rotor. […]
# Extent of hybridization was determined by scanning with a prototype multi-frame CCD camera slides produced by Applied Precision, Inc. Images were processed by informatics and imported into the Inpharna database and analyzed using the MatLab data analysis package.
# The horizontal axis is concentrations of the FK506 in logarithmic scale and the vertical axis is the values of the logarithm of the expression ratio of the genes most affected by FK506 on the vertical axis. […] P-Value is the probability that the up or down regulation is due to measurement error, as determined from observed statistics of the errors in Log 10 (expression ratio).
structure (smiles),measurement,setting,value
CN(Cc1cnc2nc(N)nc(N)c2n1)c1ccc(C(=O)N[C@@H](CCC(=O)O)C(=O)O)cc1 [methotrexate],Hill function parameter a,yeast gene YOL031C,−0.61
same,Hill function parameter n,yeast gene YOL031C,2
same,Hill function parameter log10 (u0),yeast gene YOL031C; exposure levels in μM,1.26
same,growth defect,yeast,50%
C=CC[C@@H]1/C=C(\C)C[C@H](C)C[C@H](OC)[C@H]2O[C@@](O)(C(=O)C(=O)N3CCCC[C@H]3C(=O)O[C@H](/C(C)=C/[C@@H]3CC[C@@H](O)[C@H](OC)C3)[C@H](C)[C@@H](O)CC1=O)[C@H](C)C[C@@H]2OC [FK506],concentration at which expression of most genes affected via the primary target (calcineurin pathway) reaches two fold induction or repression,calcineurin pathway,200 ng/mL
same,concentration at which expression of most off-target genes reaches two fold induction or repression,calcineurin pathway,12000 ng/mL
same,Log10(Ratio),"off-target genes; ORF ARG1, deletion strain",0.9516
same,Log10(Ratio),"off-target genes; ORF ARG4, deletion strain",0.7774
same,Log10(Ratio),"off-target genes; ORF ARG5, 6, deletion strain",0.9136
same,Log10(Ratio),"off-target genes; ORF ARO3, deletion strain",0.6261
same,Log10(Ratio),"off-target genes; ORF CPA1, deletion strain",0.5645
same,Log10(Ratio),"off-target genes; ORF CPA2, deletion strain",0.645
same,Log10(Ratio),"off-target genes; ORF ECM13, deletion strain",0.8176
same,Log10(Ratio),"off-target genes; ORF GRE2, deletion strain",0.6836
same,Log10(Ratio),"off-target genes; ORF HIS3, deletion strain",0.6152
same,Log10(Ratio),"off-target genes; ORF HIS4, deletion strain",0.8178
same,Log10(Ratio),"off-target genes; ORF HIS5, deletion strain",0.8266
same,Log10(Ratio),"off-target genes; ORF NCE3, deletion strain",0.5112
same,Log10(Ratio),"off-target genes; ORF PDR5, deletion strain",0.597
same,Log10(Ratio),"off-target genes; ORF RIB5, deletion strain",0.7436
same,Log10(Ratio),"off-target genes; ORF SNO1, deletion strain",0.7711
same,Log10(Ratio),"off-target genes; ORF SNQ2, deletion strain",0.6624
same,Log10(Ratio),"off-target genes; ORF SNZ1, deletion strain",0.9834
same,Log10(Ratio),"off-target genes; ORF YER175C, deletion strain",1.0121
same,Log10(Ratio),"off-target genes; ORF YGL117W, deletion strain",0.8608
same,Log10(Ratio),"off-target genes; ORF YHM1, deletion strain",0.5235
same,Log10(Ratio),"off-target genes; ORF YMR085W, deletion strain",0.7679
same,Log10(Ratio),"off-target genes; ORF YMR097C, deletion strain",0.6945
same,Log10(Ratio),"off-target genes; ORF YOL150C, deletion strain",0.7246
same,Log10(Ratio),"off-target genes; ORF YOR1, deletion strain",0.5928
same,Log10(Ratio),"off-target genes; ORF YOR203W, deletion strain",0.6378
same,Log10(Ratio),"off-target genes; ORF YPL088W, deletion strain",0.4764
same,toxic concentration: off-target transcriptional responses of many genes reach two-fold induction or repression,"off-target genes; by inspection of FIG. 8B, calcineurin-deleted strain",approximately 12 mg/ml
